# What was measured:
# [1] = Feeding experiment: body weight and body fat (DEXA) in rats; format: in vivo, Sprague-Dawley (SD) rats; details: high fat diet (34% fat), 0.1% by weight in chow, 8 weeks, male SD rats
# Method: For the present experiments, the compound to be tested is added to the feed of the individuals. This is beneficial against enforcement because it allows a validation of the acceptance of the test compounds. The experiments are performed with negative control and are correlated to a commercial slimming product.
# Cynaropicrin is tested using six weeks old, none-adult, male Sprague-Dawley (SD) rats (Charles Rivers, Sulzfeld, Germany). Cynaropicrin is mixed with the chow (ssniff Spezial-diäten GmbH, Soest, Germany) to a final concentration of 0.1% by weight and fed for 8 weeks in two different treatment regimes: • Balanced diet (standardised to 4% fat) • High fat diet (standardised to 34% fat)
# Controls obtain the same diet without Cynaropicrin or other anti-obesity additives.
# Body weight is studied and analysed every week, body fat and mineral bone density are analysed by DEXA (scanner, see Example 3) in week 0, in week 4 and at the last day of the study in week 8. Furthermore, the white body fat weight is determined after removal of the tissue at the end of the feeding study in week 8. For the DEXA measurements the same apparatuses and methodology are used as described in example 3.
# The GE Lunar Piximus2 DEXA scanner (GE Healthcare, Munich, Germany) gives accurate information on differences in body composition in mice (see Nagy, T R and Clair, A-L. Precision and accuracy of dual-energy X-ray absorptiometry for determining in vivo body composition in mice. Obesity Res. 2000; 8:392-398; Brommage Am J Physiol Endocrinol Metab 285: E454-E459, 2003). Validation and calibration of DEXA body composition in mice; Sarah L. Johnston, Wendy L. Peacock, Lynn M. Bell, Michel Lonchampt, and John R. Speakman, Obesity Research 2005 13 (9), 1558). One scanning procedure takes up to five minutes per individual and provides data on fat mass, lean mass, bone mineral content and bone mineral density. The method is validated against Soxhlet (SOX) fat extraction in mice and a strong correlation (r 2>0.95) between fatDEXA and fatSOX is determined (published information).
# As a control experiment within the high fat diet, epigallocatechin-3-gallate (EGCG, Chengdu Purification Technology Development Co. Ltd, Chengdu, China) in pure form is used as the standard for comparison of potency and differentiation as well as benchmark against competing compounds or formulations against obesity. […] EGCG is marketed as a functional food ingredient claiming an anti-obesity effect (Wolfram, S et al. Mol Nutr Food Res 2006; 50(2):176-87; Wolfram, S et al. Ann Nutr Metab 2005; 49(1):54-6, Klaus, S et al. Int J Obes 2005; 29(6):615-23; Hill, A M et al. J Am Coil Nutr. 2007; 26(4):396S-402S). The final concentration of EGCG used is 0.1%, too.
# [2] = Clinical blood chemistry of the rat study; format: in vivo; details: rats under high fat (HF) diet
# Method: The following parameters are involved in energy metabolism and thereby related to the metabolic syndrome. They are determined from blood samples taken in week 1; 4; and 8 of the rat study: Total cholesterol levels; HDL, LDL, TG (triglycerides), and glucose. Furthermore, the activity of liver enzymes such as ALT (alanin-aminotransferase), AST (aspartat-aminotransferase), and AP (alkaline phosphatase), as well as the concentration of Bilirubin, Albumin, Creatin Kinase, and electrolytes (Na+; K+; Ca++; Cl−) are determined as safety markers to exclude any toxic effects such as e.g. liver damage.
# Blood samples are taken from the sublingual vein and collected in Li-Heparin coated vials. The blood samples are stored on ice for a short period of time before it is centrifuged for 15 minutes at 8° C. and 3500 rpm. The supernatant plasma is transferred in a reaction tube and stored at −80° C. until clinical chemistry measurements are performed. All measurements are conducted using an Olympus AU 400 at the gene centre of the LMU Munich, working group of Prof. Wolf. Statistical calculations are performed with Statistika (Statsoft (Europe) GmbH, Hamburg, Germany) und Sigma Stat (Jandel Scientific, San Raphael, Calif., USA).
# [3] = Pathological parameters: macroscopic organ inspection and kidney histo-pathology; format: in vivo; details: rat feeding study
# Method: Main organs are analysed macroscopically for safety reasons and to investigate the effects of the different diets on these organs (e.g. induction of […] (“fatty”) livers etc.). After organ removal, macroscopic inspections of e.g. heart, kidneys; GI tract, spleen, liver are performed.
# [4] = olive oil-loaded mice, 6 hours; cited from earlier work
# [5] = test system: Mealworm (Tenebrio molitor); details: cited from earlier work
Compound,body fat accumulation (DEXA) in comparison to the control groups [1],body weight accumulation in comparison to the control groups [1],"serum TG, long term [4]",antifeeding activity [5],larval growth [5],lipid levels in blood [5],further results
"C=C(CO)C(=O)OC1CC(=C)C2CC(O)C(=C)C2C2OC(=O)C(=C)C12 (centres unmarked) [Cynaropicrin, (8-hydroxy-3,6,9-trimethylidene-2-oxo-3a,4,5,6a,7,8,9a, 9b-octahydroazuleno[4,5-b]furan-4-yl) 2-(hydroxymethyl)prop-2-enoate]",reduced body fat accumulation,reduced body weight accumulation,increase,,,,"total cholesterol:HDL/LDL ratio compared to the control group (HF only) [2]: improved; macroscopic inspection of main organs (heart, kidneys, GI tract, spleen, liver) ([3]; after organ removal): no significant alterations; histo-pathological analysis of the kidneys (morphology and function) [3]: does not result in any observation of an adverse effect"
"C=C1CC(O)C2C(=C)C(=O)OC2C2C(C)C(=O)CC12 (centres unmarked) [Grossheimin, 4-hydroxy-9-methyl-3,6-dimethylene-3a,4,5,6a,7,9,9a,9b-octahydroazuleno[5,4-d]furan-2,8-dione]",,,,no anti-feeding,inhibition of larval growth,no effect,absorption of digested food constituents [5]: little decrease; efficiency in digesting [5]: little decrease
"C=C(C)C(=O)O[C@H]1CC(=C)[C@@H]2C[C@H](O)C(=C)[C@@H]2[C@H]2OC(=O)C(=C)[C@@H]21 [aguerine B, reference compound]",,,increase,,,,
"C=C1C(=O)O[C@H]2[C@H]1[C@@H](OC(=O)[C@]1(C)CO1)CC(=C)[C@@H]1C[C@H](O)[C@]3(CO3)[C@H]21 [repin, reference compound]",,,,antifeeding activity,inhibition of larval growth,no effect,
"epigallocatechin-3-gallate [EGCG, reference compound]",No effects,No effects,,,,,
